Experiments:
[1] = target: T1, Equilibrative nucleoside transporter 1 (Homo sapiens, UniProt Q99808)
T1 sequence (Q99808 whole entry): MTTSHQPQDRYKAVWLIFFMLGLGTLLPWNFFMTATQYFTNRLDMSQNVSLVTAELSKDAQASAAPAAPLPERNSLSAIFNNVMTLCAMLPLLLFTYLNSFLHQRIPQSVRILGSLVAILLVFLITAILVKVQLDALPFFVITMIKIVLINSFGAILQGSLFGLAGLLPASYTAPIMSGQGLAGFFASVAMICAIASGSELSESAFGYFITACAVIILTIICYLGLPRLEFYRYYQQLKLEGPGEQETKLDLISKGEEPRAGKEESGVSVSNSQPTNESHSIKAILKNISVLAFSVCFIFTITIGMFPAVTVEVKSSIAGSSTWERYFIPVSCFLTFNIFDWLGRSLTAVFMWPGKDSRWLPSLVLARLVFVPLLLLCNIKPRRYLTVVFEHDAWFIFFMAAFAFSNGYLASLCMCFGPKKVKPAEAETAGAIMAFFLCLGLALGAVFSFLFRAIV

[2] = target: T2, Muscarinic acetylcholine receptor M2 (Homo sapiens, UniProt P08172); type: functional, cell-based
T2 sequence (P08172 whole entry): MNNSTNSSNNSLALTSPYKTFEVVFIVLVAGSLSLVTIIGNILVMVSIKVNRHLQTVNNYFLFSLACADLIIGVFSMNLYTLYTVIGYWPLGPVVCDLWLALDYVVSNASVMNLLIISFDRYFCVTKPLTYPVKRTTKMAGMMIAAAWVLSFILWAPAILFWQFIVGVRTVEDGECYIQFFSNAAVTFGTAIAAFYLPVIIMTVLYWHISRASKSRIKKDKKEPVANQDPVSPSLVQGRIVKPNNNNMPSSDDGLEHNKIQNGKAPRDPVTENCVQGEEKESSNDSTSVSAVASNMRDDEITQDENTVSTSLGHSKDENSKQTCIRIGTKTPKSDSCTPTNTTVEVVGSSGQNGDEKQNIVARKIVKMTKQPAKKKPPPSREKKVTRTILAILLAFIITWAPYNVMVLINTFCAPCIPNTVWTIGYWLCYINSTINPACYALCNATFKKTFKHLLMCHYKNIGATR

[3] = target: T3, Type-1 angiotensin II receptor (Homo sapiens, UniProt P30556)
T3 sequence (P30556 whole entry): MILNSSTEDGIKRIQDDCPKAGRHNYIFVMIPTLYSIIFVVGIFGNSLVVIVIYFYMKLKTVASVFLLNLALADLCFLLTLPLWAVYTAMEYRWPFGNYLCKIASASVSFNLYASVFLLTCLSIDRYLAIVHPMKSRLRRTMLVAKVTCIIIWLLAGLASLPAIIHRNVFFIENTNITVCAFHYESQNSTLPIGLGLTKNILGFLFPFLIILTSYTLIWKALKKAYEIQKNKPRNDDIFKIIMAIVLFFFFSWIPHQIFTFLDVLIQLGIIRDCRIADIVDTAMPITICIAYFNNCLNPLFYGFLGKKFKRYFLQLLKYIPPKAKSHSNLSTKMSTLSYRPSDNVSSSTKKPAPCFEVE

[4] = target: Delta-type opioid receptor (Homo sapiens, UniProt P41143)
[5] = target: T2, Muscarinic acetylcholine receptor M2; type: functional, cell-based; remark: listed apart in the source
[6] = target: Beta-1 adrenergic receptor (Homo sapiens, UniProt P08588); type: functional
Also: assay procedure not described here.

Delta-type opioid receptor, sequence (P41143 whole entry): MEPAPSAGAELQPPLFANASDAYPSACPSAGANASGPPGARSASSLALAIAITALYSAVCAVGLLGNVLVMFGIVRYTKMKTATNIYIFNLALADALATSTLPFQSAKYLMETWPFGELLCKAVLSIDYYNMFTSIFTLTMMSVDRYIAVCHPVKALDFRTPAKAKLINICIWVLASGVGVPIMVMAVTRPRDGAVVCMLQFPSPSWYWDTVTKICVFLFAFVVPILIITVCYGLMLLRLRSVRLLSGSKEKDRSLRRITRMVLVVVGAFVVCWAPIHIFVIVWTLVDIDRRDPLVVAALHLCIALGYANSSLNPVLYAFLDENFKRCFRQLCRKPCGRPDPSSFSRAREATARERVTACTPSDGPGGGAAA
Beta-1 adrenergic receptor, sequence (P08588 whole entry): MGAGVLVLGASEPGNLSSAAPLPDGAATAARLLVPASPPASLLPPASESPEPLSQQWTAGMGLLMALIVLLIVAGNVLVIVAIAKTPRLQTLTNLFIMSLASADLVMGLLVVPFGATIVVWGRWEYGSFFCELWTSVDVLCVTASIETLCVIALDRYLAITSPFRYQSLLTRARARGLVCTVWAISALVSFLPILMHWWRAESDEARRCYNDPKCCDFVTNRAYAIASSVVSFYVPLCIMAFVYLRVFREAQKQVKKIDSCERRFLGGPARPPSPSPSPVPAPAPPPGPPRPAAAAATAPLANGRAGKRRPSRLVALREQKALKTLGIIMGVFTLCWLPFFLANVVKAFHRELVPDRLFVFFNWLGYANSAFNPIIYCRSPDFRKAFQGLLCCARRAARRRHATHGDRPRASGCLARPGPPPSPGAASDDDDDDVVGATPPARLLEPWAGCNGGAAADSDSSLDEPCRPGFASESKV

Compound | AC50 [1] [µM] | AC50 [2] [µM] | AC50 [3] [µM] | AC50 [4] [µM] | AC50 [5] [µM] | AC50 [6] [µM]
CC1=C(CC(=O)O)c2cc(F)ccc2/C1=C\c1ccc([S+](C)[O-])cc1 (configuration not stated) | > 30 | > 10 | > 30 | > 30 | > 10 | > 10
O=C(O[C@H]1C[N+]2(CCCOc3ccccc3)CCC1CC2)C(O)(c1cccs1)c1cccs1 [ACLIDINIUM BROMIDE] | > 30 | – | > 30 | > 30 | – | > 10
Cc1nnc2n1-c1ccc(Cl)cc1C(c1ccccc1)=NC2 [ALPRAZOLAM] | > 30 | > 10 | > 30 | > 30 | > 10 | > 10
O=C(O)CCCC[C@@H]1SC[C@@H]2NC(=O)N[C@@H]21 [BIOTIN] | > 10 | > 10 | > 10 | > 30 | > 10 | –
CC(NC(C)(C)C)C(=O)c1cccc(Cl)c1 (configuration not stated) [BUPROPION] | > 30 | > 10 | > 30 | > 10 | > 10 | > 10
O=C1CN=C(c2ccccc2Cl)c2cc([N+](=O)[O-])ccc2N1 [CLONAZEPAM] | > 30 | > 10 | > 30 | > 30 | > 10 | > 10
CCN(CC)C(C)C(=O)c1ccccc1 (configuration not stated) [DIETHYLPROPION] | > 30 | > 10 | > 30 | > 30 | > 10 | > 10
OCCN(CCO)c1nc(N2CCCCC2)c2nc(N(CCO)CCO)nc(N3CCCCC3)c2n1 [DIPYRIDAMOLE] | – | > 30 | > 30 | > 30 | 2 | –
Cc1cnc(Nc2ccc(OCCN3CCCC3)cc2)nc1Nc1cccc(S(=O)(=O)NC(C)(C)C)c1 [FEDRATINIB] | > 30 | > 10 | > 30 | > 30 | > 10 | > 10
CCOC(=O)C1=C(C)NC(C)=C(C(=O)OC)C1c1cccc(Cl)c1Cl (configuration not stated) [FELODIPINE] | 28 | > 10 | 55.3 | > 10 | > 10 | > 10
CC(=O)OCC(=O)[C@@]1(O)CC[C@H]2[C@@H]3CCC4=CC(=O)CC[C@]4(C)[C@@]3(F)[C@@H](O)C[C@@]21C [FLUDROCORTISONE ACETATE] | > 30 | > 30 | > 30 | > 30 | > 30 | > 30
CN1C(=O)CN=C(c2ccccc2F)c2cc([N+](=O)[O-])ccc21 [FLUNITRAZEPAM] | > 30 | > 10 | > 30 | > 10 | > 10 | > 10
CC(=O)[C@@]1(O)CC[C@H]2[C@@H]3C[C@H](C)C4=CC(=O)C=C[C@]4(C)[C@@]3(F)[C@@H](O)C[C@@]21C [FLUOROMETHOLONE] | > 10 | > 10 | > 10 | > 30 | > 10 | > 10
CN1C2CCCC1CC(NC(=O)c1nn(C)c3ccccc13)C2 (configuration not stated) [GRANISETRON] | > 30 | > 10 | > 30 | > 10 | > 10 | > 10
N=C(N)NC(=O)Cc1c(Cl)cccc1Cl [GUANFACINE] | > 30 | > 30 | > 30 | > 30 | > 30 | > 10
CCN(CC)CC(=O)Nc1c(C)cccc1C [LIDOCAINE] | > 30 | – | > 10 | – | – | –
Nc1cc(N2CCCCC2)nc(N)[n+]1[O-] [MINOXIDIL] | – | > 10 | > 30 | > 30 | > 10 | > 30
TEPRENONE | – | > 10 | 8.72 | > 30 | > 10 | > 30
